Source: patent US20080318943A1, “Compounds and Uses Thereof - 848” (ASTRAZENECA AB, priority 2007, published 2008)

Experiment: EEG protocol (Method JJ), spontaneous EEG in behaving rats
Format: in vivo, Sprague Dawley rats
Excerpt: In another embodiment, certain compounds of the invention may be useful in treating schizophrenia. In a particular embodiment, certain compounds of the invention may be useful in treating cognitive disorders associated with schizophrenia. The existing non-selective GABAergic agents are generally not suitable for treating information/cognitive processing deficits in schizophrenia due to the unacceptable competing side effects, such as overt sedation and memory impairment. Certain compounds of the invention are capable of selective modification of function at the specific GABAergic synapses affected by the schizophrenic disease state. Therefore, these certain compounds of the invention acting selectively at GABAA α2 subunits may be used for treating cognitive deficits in schizophrenia.
Subjects: Sprague Dawley rats weighing 300-400 g at time of surgery are used as subjects. Rats are maintained>1 week in AstraZeneca vivarium prior to surgical procedures. Rats are housed singly, maintained on a 12:12 light:dark cycle, and fed and watered ad lib for a period of>14 days following surgery. […]
During compound testing sessions, animals are initially allowed to re-acclimate to the operant chamber for 10-20′ minutes prior to a 30-minute baseline session in which performance and EEG are continuously monitored. […]

| SMILES | spontaneous EEG at gamma frequencies | spontaneous EEG across a range of oscillation frequencies |
| --- | --- | --- |
| Cc1ccc(-c2nc3ccc(C)cn3c2CC(=O)N(C)C)cc1 [zolpidem] | no significant increase | – |
| O=C1Nc2ccc(Cl)cc2C(c2ccccc2Cl)=NC1O (centres unmarked) [Lorazepam] | – | broad changes |
